In PubChem BioAssay (NCI) one finds TGI and GI50 data, which are given here for nine compounds.

Test systems include ACHN renal; CAKI-1 renal; COLO 205 colon; HCT-116 colon; HS 578T breast; LOX IMVI melanoma; OVCAR-8 ovarian; SK-MEL-28 melanoma; SNB-75 CNS; TK-10 renal.
Common to all, as to experiment: growth of human tumour cells (NCI), 48 h

Values joined by “and” are separate entries in the source; they are usually repeats but may differ in a detail not shown here. Equal entries are not always repeated.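 Each compound was tested at five concentrations against cells in 96-well plates for 48 hours. GI50 marks 50% less growth. At the TGI there is no net growth.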

Consider `COc1cc(-c2oc3ccccc3c(=O)c2O)cc(OC)c1OC`, for which the TGI was 75.4 µM in the assay on ACHN renal; > 100 µM in the assay with CAKI-1 renal; > 100 µM in the assay on COLO 205 colon; > 100 µM in the assay on HCT-116 colon; 98.9 µM with HS 578T breast; > 100 µM with LOX IMVI melanoma. In addition, the TGI in the assay on OVCAR-8 ovarian was > 100 µM; in the assay with SK-MEL-28 melanoma it was > 100 µM; in the assay on SNB-75 CNS it was 25.6 µM; in the assay with TK-10 renal, > 88.5 µM.

With `Cc1cccc(NC(=O)c2sc3nc4c(cc3c2N)CCCC4)c1C`, the GI50 in the assay on ACHN renal is 680 nM; in the assay with CAKI-1 renal, 491 nM; in the assay with COLO 205 colon, 0.344 µM; with HCT-116 colon, 0.435 µM; in the assay on HS 578T breast, 351 nM; in the assay on LOX IMVI melanoma, 598 nM. Also, the GI50 in the assay on OVCAR-8 ovarian was 0.754 µM; in the assay with SK-MEL-28 melanoma it was > 48.4 µM; with SNB-75 CNS, 173 nM; with TK-10 renal, 23.3 µM. Further, the TGI in the assay on ACHN renal was > 100 µM; in the assay on CAKI-1 renal it was > 100 µM; in the assay with COLO 205 colon, 27.6 µM; with HCT-116 colon, > 100 µM; in the assay with HS 578T breast, > 100 µM; with LOX IMVI melanoma, > 100 µM. In addition, the TGI with OVCAR-8 ovarian, in the assay on SK-MEL-28 melanoma and with TK-10 renal was > 100 µM throughout.

On to `N#CC(C#N)SCc1ccccc1`, for which the TGI was > 100 µM with ACHN renal; > 100 µM with CAKI-1 renal; > 33.2 µM with COLO 205 colon; 75.5 µM in the assay on HCT-116 colon; 98.3 µM with HS 578T breast; > 19.8 µM with LOX IMVI melanoma. For the same compound, the TGI was 49.9 µM in the assay on OVCAR-8 ovarian, > 100 µM with SK-MEL-28 melanoma, > 96 µM in the assay with SNB-75 CNS and > 100 µM in the assay on TK-10 renal.

On to `S=C(N/N=C/c1cc(Cl)cc(Cl)c1)NC12CC3CC(CC(C3)C1)C2`, for which the GI50 in the assay with ACHN renal is 2290 nM; with CAKI-1 renal, 3600 nM; with COLO 205 colon it was 7.13 µM; in the assay with HCT-116 colon, 5.24 µM; in the assay with HS 578T breast it was 2160 nM; in the assay with LOX IMVI melanoma, 6090 nM. For the same compound, the GI50 in the assay with OVCAR-8 ovarian was 4.87 µM; in the assay on SK-MEL-28 melanoma, 14.4 µM; with SNB-75 CNS, 2000 nM; with TK-10 renal it was 4.44 µM. Further, the TGI is 8.05 µM in the assay with ACHN renal; 92.8 µM in the assay with CAKI-1 renal; > 100 µM in the assay on COLO 205 colon; > 100 µM with HCT-116 colon; 7.41 µM in the assay with HS 578T breast; > 100 µM in the assay with LOX IMVI melanoma. Besides, the TGI is > 100 µM in the assay with OVCAR-8 ovarian, > 100 µM in the assay with SK-MEL-28 melanoma, 5.46 µM with SNB-75 CNS and 19.1 µM in the assay on TK-10 renal.

`Cc1ccc(C(=O)Nc2ccc(CN3CCN(C)CC3)c(C(F)(F)F)c2)cc1C#Cc1cnc(N)c2ccc(F)cc12`: the GI50 is 79.1 nM in the assay with ACHN renal; 216 nM with CAKI-1 renal; 0.301 µM in the assay on COLO 205 colon; 0.192 µM in the assay with HCT-116 colon; 301 nM in the assay on HS 578T breast; 216 nM in the assay on LOX IMVI melanoma. Also, the GI50 in the assay with OVCAR-8 ovarian is 0.297 µM; in the assay with SK-MEL-28 melanoma, 0.41 µM; with SNB-75 CNS it was 256 nM; with TK-10 renal it was 0.416 µM. Also, the TGI with ACHN renal amounted to 0.401 µM; with CAKI-1 renal, 1.29 µM; with COLO 205 colon, 0.933 µM; with HCT-116 colon it was 0.533 µM; with HS 578T breast, 1.37 µM; with LOX IMVI melanoma it was 0.557 µM. Besides, the TGI with OVCAR-8 ovarian is 2.37 µM; in the assay with SK-MEL-28 melanoma it was 0.918 µM; in the assay with SNB-75 CNS, 0.863 µM; in the assay on TK-10 renal, 2.72 µM.

Take `CSc1ccc(/C=C2\CNC/C(=C\c3ccc(SC)cc3)C2=O)cc1`: the TGI was > 371 µM with ACHN renal; 150 µg/mL with CAKI-1 renal; > 371 µM and 150 µg/mL with COLO 205 colon; > 371 µM and 150 µg/mL in the assay with HCT-116 colon; > 371 µM in the assay on HS 578T breast; > 371 µM and 150 µg/mL with LOX IMVI melanoma. Further, the TGI in the assay on OVCAR-8 ovarian was > 102 µM and 150 µg/mL; in the assay with SK-MEL-28 melanoma it was > 371 µM and 150 µg/mL; with SNB-75 CNS it was 86.4 µM and 47.5 µM and 27.9 µg/mL; in the assay with TK-10 renal it was > 165 µM. In addition, the GI50 is 90.3 µg/mL in the assay on CAKI-1 renal; 150 µg/mL in the assay with COLO 205 colon; 31.4 µg/mL in the assay with HCT-116 colon; 7.76 µM and 150 µg/mL in the assay with LOX IMVI melanoma; 116 µg/mL in the assay with OVCAR-8 ovarian; 150 µg/mL in the assay on SK-MEL-28 melanoma. In addition, in the assay on SNB-75 CNS, the GI50 is 23.2 µM and 7.91 µg/mL.

In the case of `CC1(C)O[C@H]2OC3CCC(=O)CC3(O)[C@H]2O1` (stereo partly specified), the TGI with ACHN renal, with CAKI-1 renal, with COLO 205 colon, in the assay with HCT-116 colon, with HS 578T breast and in the assay with LOX IMVI melanoma was > 100 µM in each case. For the same compound, the TGI with OVCAR-8 ovarian, with SK-MEL-28 melanoma, in the assay on SNB-75 CNS and in the assay on TK-10 renal was > 100 µM in each case.

Take `COc1ccc(Cl)cc1Nc1nc(C(F)(F)F)ccc1C(=O)NN`: the GI50 is 2530 nM with ACHN renal; 2740 nM in the assay on CAKI-1 renal; 7.76 µM in the assay on COLO 205 colon; 4.76 µM with HCT-116 colon; 12300 nM in the assay with HS 578T breast; 2570 nM in the assay on LOX IMVI melanoma. The GI50 in the assay with OVCAR-8 ovarian was 3.43 µM; with SK-MEL-28 melanoma, 3.38 µM; in the assay with SNB-75 CNS it was 16600 nM; with TK-10 renal, 3.81 µM. Besides, the TGI was > 100 µM in the assay on ACHN renal; 22.7 µM with CAKI-1 renal; > 100 µM in the assay on COLO 205 colon; > 100 µM with HCT-116 colon; > 100 µM in the assay with HS 578T breast; > 65.4 µM in the assay on LOX IMVI melanoma. Further, the TGI in the assay with OVCAR-8 ovarian, with SK-MEL-28 melanoma, in the assay with SNB-75 CNS and in the assay on TK-10 renal was > 100 µM in each case.

For the compound `C/C(=N\O)c1ccc(Nc2cc(-n3nnc4ccccc43)nc3ccccc23)cc1`, the GI50 was 5820 nM in the assay with ACHN renal; 4260 nM with CAKI-1 renal; 9.47 µM with COLO 205 colon; 7.64 µM in the assay on HCT-116 colon; 6290 nM in the assay with HS 578T breast; 3440 nM in the assay with LOX IMVI melanoma. Also, the GI50 in the assay with OVCAR-8 ovarian was 5.65 µM; with SK-MEL-28 melanoma it was 16.9 µM; in the assay with SNB-75 CNS it was 22800 nM; with TK-10 renal it was 3.14 µM. Besides, the TGI with ACHN renal was 21.8 µM; with CAKI-1 renal, 13.7 µM; in the assay with COLO 205 colon it was > 39.2 µM; in the assay with HCT-116 colon it was 23.7 µM; in the assay on HS 578T breast it was 20.4 µM; in the assay on LOX IMVI melanoma it was 13.5 µM. For the same compound, the TGI with OVCAR-8 ovarian is 18.3 µM; with SK-MEL-28 melanoma, > 69 µM; in the assay with SNB-75 CNS, 99.2 µM; with TK-10 renal, 14.2 µM.
